Measured values taken from US20260262643A1, “HERBICIDAL BENZOXAZINES” (FMC CORPORATION, priority 2022, published 2026).

Experiments:
green foxtail [1] = assay: Test C postemergence; assay type: in vivo, Setaria viridis; conditions: 10 days
Summary of the method: (§1)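 Test material, in non-phytotoxic solvent with surfactant, was sprayed on the soil directly after seeding (preemergence) or on young plants of 2–10 cm with one to two leaves (postemergence). Greenhouse, 10 days; 0–100 visual control scale.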

sedge, umbrella = assay: Test D flooded paddy test; assay type: in vivo, Cyperus difformis; conditions: 250 g ai/ha, applied to paddy water, visual rating after 13 to 14 days, scale 0 to 100 (0 no effect, 100 complete control)
Summary of the method: (§2)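 2-leaf plants; flood 3 cm above soil; compound dosed into paddy water; greenhouse 13–14 d; visual rating vs controls, 0–100 (100 = complete control); dash = not tested.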

barnyardgrass [2] = assay: Test C preemergence; assay type: in vivo, Echinochloa crusgalli; conditions: 0 to 100 scale (0 no effect, 100 complete control)
Summary of the method: as §1

rice = assay: Test D flooded paddy test; assay type: in vivo, Oryza sativa; conditions: 250 g ai/ha, applied to paddy water, visual rating after 13 to 14 days, scale 0 to 100 (0 no effect, 100 complete control)
Summary of the method: as §2

galium = assay: Test C postemergence; assay type: in vivo, Galium aparine; conditions: 10 days
Summary of the method: as §1

kochia [3] = assay: Test C preemergence; assay type: in vivo, Bassia scoparia; conditions: 0 to 100 scale (0 no effect, 100 complete control)
Summary of the method: as §1

blackgrass [4] = assay: Test C preemergence; assay type: in vivo, Alopecurus myosuroides; conditions: 0 to 100 scale (0 no effect, 100 complete control)
Summary of the method: as §1

ragweed [5] = assay: Test C preemergence; assay type: in vivo, Ambrosia artemisiifolia; conditions: 0 to 100 scale (0 no effect, 100 complete control)
Summary of the method: as §1

corn [6] = assay: Test C postemergence; assay type: in vivo, Zea mays; conditions: 10 days
Summary of the method: as §1

barnyardgrass [7] = assay: Test D flooded paddy test; assay type: in vivo, Echinochloa crus-galli; conditions: 250 g ai/ha, applied to paddy water, visual rating after 13 to 14 days, scale 0 to 100 (0 no effect, 100 complete control)
Summary of the method: as §2

oat, wild [8] = assay: Test C postemergence; assay type: in vivo, Avena fatua; conditions: 10 days
Summary of the method: as §1

pigweed, palmer [9] = assay: Test C preemergence; assay type: in vivo, Amaranthus palmeri; conditions: 0 to 100 scale (0 no effect, 100 complete control)
Summary of the method: as §1

blackgrass [10] = assay: Test C postemergence; assay type: in vivo, Alopecurus myosuroides; conditions: 10 days
Summary of the method: as §1

wheat [11] = assay: Test C preemergence; assay type: in vivo, Triticum aestivum; conditions: 0 to 100 scale (0 no effect, 100 complete control)
Summary of the method: as §1

barnyardgrass [12] = assay: Test C postemergence; assay type: in vivo, Echinochloa crusgalli; conditions: 10 days
Summary of the method: as §1

soybean [13] = assay: Test C preemergence; assay type: in vivo, Glycine max; conditions: 0 to 100 scale (0 no effect, 100 complete control)
Summary of the method: as §1

kochia [14] = assay: Test C postemergence; assay type: in vivo, Bassia scoparia; conditions: 10 days
Summary of the method: as §1

ryegrass, Italian [15] = assay: Test C preemergence; assay type: in vivo, Lolium multiflorum; conditions: 0 to 100 scale (0 no effect, 100 complete control)
Summary of the method: as §1

ragweed [16] = assay: Test C postemergence; assay type: in vivo, Ambrosia artemisiifolia; conditions: 10 days
Summary of the method: as §1

wheat [17] = assay: Test C postemergence; assay type: in vivo, Triticum aestivum; conditions: 10 days
Summary of the method: as §1

corn [18] = assay: Test C preemergence; assay type: in vivo, Zea mays; conditions: 0 to 100 scale (0 no effect, 100 complete control)
Summary of the method: as §1

oat, wild [19] = assay: Test C preemergence; assay type: in vivo, Avena fatua; conditions: 0 to 100 scale (0 no effect, 100 complete control)
Summary of the method: as §1

soybean [20] = assay: Test C postemergence; assay type: in vivo, Glycine max; conditions: 10 days
Summary of the method: as §1

ryegrass, Italian [21] = assay: Test C postemergence; assay type: in vivo, Lolium multiflorum; conditions: 10 days
Summary of the method: as §1

horseweed = assay: Test C postemergence; assay type: in vivo, Erigeron canadensis; conditions: 10 days
Summary of the method: as §1

green foxtail [22] = assay: Test C preemergence; assay type: in vivo, Setaria viridis; conditions: 0 to 100 scale (0 no effect, 100 complete control)
Summary of the method: as §1

ducksalad = assay: Test D flooded paddy test; assay type: in vivo, Heteranthera limosa; conditions: 250 g ai/ha, applied to paddy water, visual rating after 13 to 14 days, scale 0 to 100 (0 no effect, 100 complete control)
Summary of the method: as §2

pigweed, palmer [23] = assay: Test C postemergence; assay type: in vivo, Amaranthus palmeri; conditions: 10 days
Summary of the method: as §1

[24] = 125 g ai/ha, postemergence, 0 to 100 scale, 0 no effect, 100 complete control
[25] = Postemergence, 500 g ai/ha, visual 0 to 100 scale (0 no effect, 100 complete control)
[26] = Preemergence, 500 g ai/ha, visual rating after 10 days
[27] = Test C, preemergence, 125 g ai/ha

Cc1cccc2c1O[C@@H](C)CN2C(=O)c1cc(-n2cnc(C(C)C)n2)cc2ccoc12 [Compound 227]
Plant response rating, Foxtail, Green (green foxtail [1]; [24]): 80 | Plant response rating, Foxtail, Green (green foxtail [1]; [25]): 90 | Plant response rating, Sedge, Umbrella (Flood) (sedge, umbrella): 98 | Plant response rating, Barnyardgrass (barnyardgrass [2]; [26]): 90 | Barnyardgrass plant response rating (barnyardgrass [2]; [27]): 80 | Plant response rating, Rice (Flood) (rice): 10 | Plant response rating, Galium (galium; [24]): 100 | Plant response rating, Galium (galium; [25]): 100 | Plant response rating, Kochia (kochia [3]; [26]): 100 | Kochia plant response rating (kochia [3]; [27]): 90 | Plant response rating, Blackgrass (blackgrass [4]; [26]): 90 | Blackgrass plant response rating (blackgrass [4]; [27]): 80 | Plant response rating, Ragweed (ragweed [5]; [26]): 50 | Ragweed plant response rating (ragweed [5]; [27]): 0 | Plant response rating, Corn (corn [6]; [24]): 20 | Plant response rating, Corn (corn [6]; [25]): 80 | Plant response rating, Barnyardgrass (Flood) (barnyardgrass [7]): 50 | Plant response rating, Oat, Wild (oat, wild [8]; [24]): 30 | Plant response rating, Oat, Wild (oat, wild [8]; [25]): 60 | Plant response rating, Pigweed, Palmer (pigweed, palmer [9]; [26]): 100 | Pigweed, Palmer plant response rating (pigweed, palmer [9]; [27]): 90 | Plant response rating, Blackgrass (blackgrass [10]; [24]): 50 | Plant response rating, Blackgrass (blackgrass [10]; [25]): 80 | Plant response rating, Wheat (wheat [11]; [26]): 30 | Wheat plant response rating (wheat [11]; [27]): 0 | Plant response rating, Barnyardgrass (barnyardgrass [12]; [24]): 40 | Plant response rating, Barnyardgrass (barnyardgrass [12]; [25]): 70 | Plant response rating, Soybean (soybean [13]; [26]): 90 | Soybean plant response rating (soybean [13]; [27]): 70 | Plant response rating, Kochia (kochia [14]; [24]): 90 | Plant response rating, Kochia (kochia [14]; [25]): 100 | Plant response rating, Ryegrass, Italian (ryegrass, Italian [15]; [26]): 90 | Ryegrass, Italian plant response rating (ryegrass, Italian [15]; [27]): 90 | Plant response rating, Ragweed (ragweed [16]; [24]): 10 | Plant response rating, Ragweed (ragweed [16]; [25]): 50 | Plant response rating, Wheat (wheat [17]; [24]): 20 | Plant response rating, Wheat (wheat [17]; [25]): 60 | Plant response rating, Corn (corn [18]; [26]): 60 | Corn plant response rating (corn [18]; [27]): 50 | Plant response rating, Oat, Wild (oat, wild [19]; [26]): 90 | Oat, Wild plant response rating (oat, wild [19]; [27]): 90 | Plant response rating, Soybean (soybean [20]; [24]): 100 | Plant response rating, Soybean (soybean [20]; [25]): 100 | Plant response rating, Ryegrass, Italian (ryegrass, Italian [21]; [24]): 90 | Plant response rating, Ryegrass, Italian (ryegrass, Italian [21]; [25]): 100 | Plant response rating, Horseweed (horseweed; [24]): 20 | Plant response rating, Horseweed (horseweed; [25]): 40 | Plant response rating, Foxtail, Green (green foxtail [22]; [26]): 100 | Foxtail, Green plant response rating (green foxtail [22]; [27]): 100 | Plant response rating, Ducksalad (Flood) (ducksalad): 80 | Plant response rating, Pigweed, Palmer (pigweed, palmer [23]; [24]): 100 | Plant response rating, Pigweed, Palmer (pigweed, palmer [23]; [25]): 100
